Assay results from US10617680B2 (CELGENE QUANTICEL RESEARCH, INC., priority 2017, dated 2020).

target: CBP (Homo sapiens (Human), UniProt Q92793); experiment: In vitro CBP inhibition (AlphaScreen, biotinylated H4-tetraacetyl peptide); type: binding; settings: AlphaScreen, Table 29; read-out: CBP IC50
Procedure, shortened: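 His-tagged CBP expressed in E. coli (50 nM final) incubated with biotinylated H4K5/8/12/16(Ac) peptide (20 nM final) in 50 mM HEPES pH 7.3, 10 mM NaCl, 0.25 mM TCEP, 0.1% BSA, 0.005% Brij-35, 0.4% DMSO, 20 min at room temp.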

Chain of CBP (Q92793 1081-1197): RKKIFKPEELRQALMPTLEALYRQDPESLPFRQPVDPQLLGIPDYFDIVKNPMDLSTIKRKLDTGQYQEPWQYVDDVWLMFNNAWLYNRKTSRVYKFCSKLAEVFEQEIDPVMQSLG

Compound | IC50 [nM]
CC(=O)N[C@@H]1CCN(c2cc(=O)n(C)cc2-c2cnn(Cc3ccccc3)c2)C1 [Example 72, (R)-N-(1-(5-(1-benzyl-1H-pyrazol-4-yl)-1-methyl-2-oxo-1,2-dihydropyridin-4-yl)pyrrolidin-3-yl)acctamide] | 500 to 5000
COC1CN(c2cc(=O)n(C)cc2-c2cnn(C(C)c3ccccc3)c2)C1 (stereo not drawn) [Example 58, 4-(3-methoxyazetidin-1-yl)-1-methyl-5-(1-(1-phenylethyl)-1H-pyrazol-4-yl)pyridin-2(1H)-one] | 500 to 5000
CCOc1cc(=O)n(C)cc1-c1cnn2c1CN(C(C)=O)CC2 [Example 393, 5-(5-Acetyl-4,5,6,7-tetrahydro-pyrazolo[1,5-a]pyrazin-3-yl)-4-ethoxy-1-methyl-1H-pyridin-2-one] | 500 to 5000
CCOc1cc(=O)n(C)cc1-c1cnn(Cc2ccc(C(C)C)cc2)c1 [Example 101, 4-ethoxy-5-[1-(4-isopropyl-benzyl)-1H-pyrazol-4-yl]-1-methyl-1H-pyridin-2-one] | < 500
CCOc1cc(=O)n(C)cc1-c1cnn(-c2cccc(C)c2C#N)c1 [Example 179, 2-[4-(4-Ethoxy-1-methyl-6-oxo-1,6-dihydro-pyridin-3-yl)-pyrazol-1-yl]-6-methyl-benzonitrile] | < 500
Cn1cc(-c2cnn(C3CCOCC3)c2)c(-c2ccccc2)cc1=O [Example 126, 1-methyl-4-phenyl-5-(1-(tetrahydro-2H-pyran-4-yl)-1H-pyrazol-4-yl) pyridin-2(1H)-one] | < 500
Cn1cc(-c2cnn(Cc3ccccc3)c2)c(-c2cnn(CC(C)(C)O)c2)cc1=O [Example 161, 5-(1-benzyl-1H-pyrazol-4-yl)-4-(1-(2-hydroxy-2-methylpropyl)-1H-pyrazol-4-yl)-1-methyl-pyridin-2(1H)-one] | < 500
CCOc1cc(=O)n(C)cc1-c1cnn(CC2CC2(F)F)c1 (stereo not drawn) [Example 171, 5-[1-(2,2-Difluoro-cyclopropylmethyl)-1H-pyrazol-4-yl]-4-ethoxy-1-methyl-1H-pyridin-2-one] | < 500
CCOc1ccc(-c2cc(=O)n(C)cc2-c2cnn(-c3cccc(F)c3C#N)c2)cn1 [Example 359, 2-(4-(6-ethoxy-1′-methyl-6′-oxo-1′,6′-dihydro-[3,4′-bipyridin]-3′-yl)-1H-pyrazol-1-yl)-6-fluorobenzonitrile] | < 500

Results, then the compound that gave them:

IC50 [nM] | Compound
< 500 | CC(C)Nc1ccc(-c2cc(=O)n(C)cc2-c2cnn(-c3cccc(F)c3C#N)c2)cn1 [Example 351, 2-fluoro-6-(4-(6-(isopropylamino)-1′-methyl-6′-oxo-1′,6′-dihydro-[3,4′-bipyridin]-3′-yl)-1H-pyrazol-1-yl)benzonitrile]
< 500 | CCOc1cc(=O)n(C)cc1-c1cnn(-c2ccccc2C(=O)O)c1 [Example 249, 2-(4-(4-ethoxy-1-methyl-6-oxo-1,6-dihydropyridin-3-yl)-1H-pyrazol-1-yl)benzoic acid]
< 500 | COc1cccc(-c2cc(=O)n(C)cc2-c2cnn(-c3ccccc3C#N)c2)c1 [Example 241, 2-{4-[4-(3-Methoxy-phenyl)-1-methyl-6-oxo-1,6-dihydro-pyridin-3-yl]-pyrazol-1-yl}-benzonitrile]
< 500 | CC(C)Oc1ccc(-c2cc(=O)n(C)cc2-c2cnn(-c3ccccc3C(=O)O)c2)cn1 [Example 231, 2-[4-(6-Isopropoxy-1′-methyl-6′-oxo-1′,6′-dihydro-[3,4′]bipyridinyl-3′-yl)-pyra.zol-1-yl]-benzoic acid]
< 500 | Cn1cc(-c2cnn(-c3ccccc3C(=O)O)c2)c(-c2ccc(F)cc2)cc1=O [Example 226, 2-{4-[4-(4-Fluoro-phenyl)-1-methyl-6-oxo-1,6-dihydro-pyridin-3-yl]-pyrazol-1-yl}-benzoic acid]
< 500 | Cc1ccc(-c2cc(=O)n(C)cc2-c2cnn(-c3cccc(Cl)c3C#N)c2)cn1 [Example 369, 2-chloro-6-(4-(1′,6-dimethyl-6′-oxo-1′,6′-dihydro-[3,4′-bipyridin]-3′-yl)-1H-pyrazol-1-yl)benzonitrile]
